Data taken from patent US20260356841A1, “HETEROCYCLIC PYRIDINONE COMPOUNDS AS TRIGGERING RECEPTOR EXPRESSED ON MYELOID CELLS 2 AGONISTS AND METHODS OF USE” (Vigil Neuroscience, Inc., priority 2023, published 2026).
pEC50: −log10 of the molar value.

Molecular target: T1, human TREM2 (Homo sapiens, UniProt Q9NZC2)
T1 construct: expressed in transfected cells; host or cells: HEK293T (HEK293T-hTREM2 cells)
Test: TREM2 agonist potency by cellular phosphorylation of Spleen Tyrosine Kinase (Syk), AlphaLisa, HEK293T-hTREM2 cells
Format: cell-based
Conditions: not given
Procedure, shortened: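 HEK293T cells co-expressing human TREM2 and DAP12, plated 20–24 h before use. Compounds applied 45 min at room temperature in assay buffer, then cells lysed and phospho-Syk quantified by AlphaLisa. Percent activation from a standard curve; EC50 from a four-parameter variable-slope fit.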

T1 sequence (Q9NZC2 19-230): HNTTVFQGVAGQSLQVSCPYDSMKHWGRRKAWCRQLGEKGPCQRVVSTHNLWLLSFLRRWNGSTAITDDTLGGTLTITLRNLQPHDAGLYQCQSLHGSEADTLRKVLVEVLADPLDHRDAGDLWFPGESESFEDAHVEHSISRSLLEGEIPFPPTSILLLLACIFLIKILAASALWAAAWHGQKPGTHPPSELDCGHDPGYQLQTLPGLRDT
T1 sequence (O43914 22-113 partner): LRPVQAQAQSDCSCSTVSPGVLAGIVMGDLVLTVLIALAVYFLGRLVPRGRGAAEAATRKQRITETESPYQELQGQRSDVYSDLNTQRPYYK

Cc1nc2nc(N3C[C@@H](C)O[C@@H](c4ccc(=O)n(C)c4)C3)nc(-c3ccc(C(F)(F)F)cc3F)c2nc1C [Example 7, 5-[(2S,6R)-4-[4-[2-fluoro-4-(trifluoromethyl)phenyl]-6,7-dimethyl-pteridin-2-yl]-6-methyl-morpholin-2-yl]-1-methyl-pyridin-2-one] gave a pEC50 greater than 7.00.

Same assay, conditions: hTREM2 EC50 Data (HEK293 Cells); Syk phosphorylation, AlphaLisa; read-out: hTREM2 EC50

[2H]C([2H])([2H])c1nc2nc(N3C[C@@H](C)O[C@@H](c4ccc(=O)n(C5CC5)c4)C3)nc(C34CC(C(F)(F)F)(C3)C4)c2nc1C([2H])([2H])[2H] [Example 182, 5-[(2S,6R)-4-[6,7-bis(methyl-d3)-4-[3-(trifluoromethyl)-1-bicyclo[1.1.1]pentan-1-yl]pteridin-2-yl]-6-methyl-morpholin-2-yl]-1-cyclopropylpyridin-2(1H)-one] and Cc1nc2nc(N3C[C@@H](C)O[C@@H](c4ccc(=O)n(C)c4)C3)nc(C34CC(C(F)(F)F)(C3)C4)c2nc1C [Example 62, 5-[(2S,6R)-4-[6,7-dimethyl-4-[3-(trifluoro-methyl)-1-bicyclo[1.1.1]pentanyl]pteridin-2-yl]-6-methyl-morpholin-2-yl]-1-methyl-pyridin-2-one] cannot be ordered by pEC50: greater than 7.00 for the first, greater than 7.00 for the second.

Cc1nc2nc([C@H]3CCO[C@@H](c4cnc(=O)n(C)c4)C3)nc(C34CC(C(F)(F)F)(C3)C4)c2nc1C [Example 161] and Cc1nc2nc(C3CCOC(c4ccc(=O)n(C)c4)C3)nc(C34CC(C(F)(F)F)(C3)C4)c2nc1C (stereo not drawn) [Example 27, 5-(4-(6,7-dimethyl-4-(3-(trifluoromethyl)-bicyclo[1.1.1]pentan-1-yl)pteridin-2-yl)tetrahydro-2H-pyran-2-yl)-1-methylpyridin-2(1H)-one] cannot be ordered by pEC50: greater than 7.00 for the first, greater than 7.00 for the second.

Compared with Cc1nc2nc([C@H]3CCO[C@@H](c4ccc(=O)n(C)c4)C3)nc(-c3ccc(C(F)(F)F)cc3F)c2nc1C [Example 4, 1-methyl-5-[(2R,4S)-4-[4-[2-fluoro-4-(trifluoro-methyl)phenyl]-6,7-dimethyl-pteridin-2-yl]tetrahydropyran-2-yl]pyridin-2-one], Cc1nc2nc([C@H]3CCO[C@@H](c4ccc(=O)n(C)c4)C3)nc(-c3ccc(C(F)(F)F)cc3F)c2nc1C(F)F [Example 126, 5-[(2R,4S)-4-[6-(difluoromethyl)-4-[2-fluoro-4-(trifluoromethyl)phenyl]-7-methyl-pteridin-2-yl]tetrahydropyran-2-yl]-1-methyl-pyridin-2-one] is lower in pEC50: greater than 7.00 for the first, 6.30 to 7.00 for the second. The first is the more potent here.

First: CN(C)c1nc2nc([C@@H]3CCO[C@H](c4ccc(=O)n(C)c4)C3)nc(-c3ccc(F)cc3F)c2s1 [Example 14, 5-[(2S,4R)-4-[7-(2,4-difluorophenyl)-2-(dimethylamino)thiazolo[4,5-d]pyrimidin-5-yl]tetrahydropyran-2-yl]-1-methyl-pyridin-2-one]
Second: CN1Cc2c(cc([C@H]3CCO[C@@H](c4ccc(=O)n(C)c4)C3)nc2-c2ccc(C(F)(F)F)cc2F)C1=O (single isomer, unassigned) [Example 165]
The pEC50 of the first is higher: greater than 7.00 for the first, 6.30 to 7.00 for the second. The first is the more potent here.

Compared with Cc1nc2nc(N3C[C@@H](C)O[C@@H](c4ccc(=O)n(C)c4)C3)nc(C34CC(C(N)=O)(C3)C4)c2nc1C [Example 204, 3-[6,7-dimethyl-2-[(2R,6S)-2-methyl-6-(1-methyl-6-oxo-3-pyridyl)morpholin-4-yl]pteridin-4-yl]bicyclo[1.1.1]pentane-1-carboxamide], Cc1nc2nc(N3C[C@@H](C)O[C@@H](c4ccc(=O)n(C)c4)C3)nc(C34CC(C#N)(C3)C4)c2nc1C [Example 205, 3-[6,7-dimethyl-2-[(2R,6S)-2-methyl-6-(1-methyl-6-oxo-3-pyridyl)morpholin-4-yl]pteridin-4-yl]bicyclo[1.1.1]pentane-1-carbonitrile] is higher in pEC50: less than 6.30 for the first, greater than 7.00 for the second. The second is the more potent here.

Cc1nc2nc([C@H]3CCO[C@@H](c4ccc(=O)n(-c5cscn5)c4)C3)nc(C34CC(C(F)(F)F)(C3)C4)c2nc1C [Example 110, 5-((2R,4S)-4-(6,7-dimethyl-4-(3-(trifluoromethyl)bicyclo[1.1.1]pentan-1-yl)pteridin-2-yl)tetrahydro-2H-pyran-2-yl)-1-(thiazol-4-yl)pyridin-2(1H)-one] and Cc1nc(-n2cc([C@H]3C[C@@H](c4nc(C56CC(C(F)(F)F)(C5)C6)c5nc(C)c(C)nc5n4)CCO3)ccc2=O)cs1 [Example 114, 5-((2R,4S)-4-(6,7-dimethyl-4-(3-(trifluoro-methyl)bicyclo[1.1.1]pentan-1-yl)pteridin-2-yl)tetrahydro-2H-pyran-2-yl)-1-(2-methyl-thiazol-4-yl)pyridin-2(1H)-one] cannot be ordered by pEC50: greater than 7.00 for the first, greater than 7.00 for the second.

Cc1nc2nc([C@H]3CCO[C@@H](c4ccc(=O)n(N5CC6C(C5)C6(F)F)c4)C3)nc(C34CC(C(F)(F)F)(C3)C4)c2nc1C (stereo partly drawn) [Example 215, 1-(6,6-difluoro-3-azabicyclo[3.1.0]hexan-3-yl)-5-[(2R,4S)-4-[6,7-dimethyl-4-[3-(trifluoromethyl)-1-bicyclo[1.1.1]pentanyl]pteridin-2-yl]tetrahydropyran-2-yl]pyridin-2-one] and Cc1nc2nc([C@@H]3CCO[C@H](c4ccc(=O)n(C56CC(C5)C6)c4)C3)nc(C34CC(C(F)(F)F)(C3)C4)c2nc1C [Example 121, 1-(1-bicyclo[1.1.1]pentanyl)-5-[(2S,4R)-4-[6,7-dimethyl-4-[3-(trifluoromethyl)-1-bicyclo[1.1.1]-pentanyl]pteridin-2-yl]tetrahydropyran-2-yl]pyridine-2-one] cannot be ordered by pEC50: greater than 7.00 for the first, greater than 7.00 for the second.

Going from COc1nc2c(C3CCC(F)(F)CC3)nc([C@H]3CCO[C@@H](c4ccc(=O)n(C)c4)C3)nc2nc1C [Example 138, 5-[(2R,4S)-4-[4-(4,4-difluorocyclohexyl)-6-methoxy-7-methyl-pteridin-2-yl]tetrahydropyran-2-yl]-1-methyl-pyridin-2-one] to [2H]C([2H])([2H])n1cc([C@H]2C[C@@H](c3nc(C4CC45CC5(F)F)c4nc(C)c(C)nc4n3)CCO2)ccc1=O (stereo partly drawn) [Example 92, 5-((2R,4S)-4-(4-(4,4-difluorospiro[2.2]pentan-1-yl)-6,7-dimethylpteridin-2-yl)tetrahydro-2H-pyran-2-yl)-1-(methyl-d3)pyridin-2(1H)-one], the pEC50 falls from greater than 7.00 to less than 6.30.

Cc1cc2c(C34CC(C(F)(F)F)(C3)C4)nc([C@H]3CCO[C@@H](c4ccc(=O)n(C)c4)C3)nc2nc1C [Example 324] and CNn1cc([C@H]2C[C@@H](c3nc(C45CC(C(F)(F)F)(C4)C5)c4cc(C(F)(F)F)c(C)nc4n3)CCO2)ccc1=O [Example 338, 1-(methylamino)-5-((2R,4S)-4-(7-methyl-6-(trifluoromethyl)-4-(3-(trifluoromethyl)bicyclo-[1.1.1]pentan-1-yl)pyrido[2,3-d]pyrimidin-2-yl)tetrahydro-2H-pyran-2-yl)pyridin-2 (1H)-one] cannot be ordered by pEC50: greater than 7.00 for the first, greater than 7.00 for the second.

Cc1nc2nc(N3C[C@@H](C)O[C@@H](c4ccc(=O)n(C)c4)C3)nc(-c3cnc(C(F)(F)F)s3)c2nc1C [Example 23, 5-[(2S,6R)-4-[6,7-dimethyl-4-[2-(trifluoromethyl)thiazol-5-yl]pteridin-2-yl]-6-methyl-morpholin-2-yl]-1-methyl-pyridin-2-one] and Cc1nc2nc([C@H]3C[C@@H](C)O[C@@H](c4ccc(=O)n(C)c4)C3)nc(C34CC(C(F)(F)F)(C3)C4)c2nc1C [Example 56, 5-[(2R,4S,6R)-4-[6,7-dimethyl-4-[3-(trifluoromethyl)-1-bicyclo[1.1.1]-pentanyl]pteridin-2-yl]-6-methyl-tetrahydropyran-2-yl]-1-methyl-pyridin-2-one] cannot be ordered by pEC50: greater than 7.00 for the first, greater than 7.00 for the second.

COCCn1cc([C@H]2C[C@@H](c3nc(C45CC(C(F)(F)F)(C4)C5)c4nc(C)c(C)nc4n3)CCO2)ccc1=O [Example 82, 5-[(2R,4S)-4-[6,7-dimethyl-4-[3-(trifluoromethyl)-1-bicyclo[1.1.1]pentanyl]pteridin-2-yl]tetrahydropyran-2-yl]-1-(2-methoxyethyl)pyridin-2-one] and Cc1nc2nc([C@H]3CCO[C@@H](c4ccc(=O)n(CCO)c4)C3)nc(C34CC(C(F)(F)F)(C3)C4)c2nc1C [Example 84, 5-[(2R,4S)-4-[6,7-dimethyl-4-[3-(trifluoromethyl)-1-bicyclo[1.1.1]pentanyl]pteridin-2-yl]tetrahydropyran-2-yl]-1-(2-hydroxyethyl)pyridin-2-one] cannot be ordered by pEC50: greater than 7.00 for the first, greater than 7.00 for the second.

Cc1nc2nc(C3CCO[C@@H](c4ccc(=O)n(N(C)C)c4)C3)nc(C34CC(C(F)(F)F)(C3)C4)c2nc1C(F)F (stereo in doubt) [Example 220, 5-((2R,4R)-4-(6-(difluoromethyl)-7-methyl-4-(3-(trifluoromethyl)bicyclo[1.1.1]pentan-1-yl)pteridin-2-yl)tetrahydro-2H-pyran-2-yl)-1-(dimethylamino)pyridin-2(1H)-one] and CNn1cc([C@H]2C[C@@H](c3nc(C45CC(C(F)(F)F)(C4)C5)c4nc(C)c(C)nc4n3)CCO2)ccc1=O [Example 179, 5-[(2R,4S)-4-[6,7-dimethyl-4-[3-(trifluoromethyl)-1-bicyclo[1.1.1]pentanyl]pteridin-2-yl]tetrahydropyran-2-yl]-1-(methylamino)pyridin-2-one] cannot be ordered by pEC50: greater than 7.00 for the first, greater than 7.00 for the second.

C=CCNn1cc([C@H]2C[C@@H](c3nc(C45CC(C(F)(F)F)(C4)C5)c4nc(C)c(C)nc4n3)CCO2)ccc1=O [Example 207, 1-(allylamino)-5-[(2R,4S)-4-[6,7-dimethyl-4-[3-(trifluoromethyl)-1-bicyclo[1.1.1]pentanyl]pteridin-2-yl]tetrahydropyran-2-yl]pyridin-2-one] and Cc1nc2nc([C@H]3CCO[C@@H](c4ccc(=O)n(C)c4)C3)nc(C34CC(CC(F)F)(C3)C4)c2nc1C [Example 46, 5-[(2R,4S)-4-[4-[3-(2,2-difluoroethyl)-1-bicyclo[1.1.1]pentanyl]-6,7-dimethyl-pteridin-2-yl]tetrahydropyran-2-yl]-1-methyl-pyridin-2-one] cannot be ordered by pEC50: greater than 7.00 for the first, greater than 7.00 for the second.
